Laboratory results as given in ChEMBL document CHEMBL5034028, “Design, synthesis and biological evaluation of tyrosinase-targeting PROTACs” (Eur J Med Chem, 2021).
Converted amounts (≈) assume the structure as drawn. The source made the active and inactive calls. No cut-off for these calls is given here.

Columns and labels:
[1] = biological target: T1, Protein cereblon/Tyrosinase (Homo sapiens) (UniProt P14679+Q96SW2); experiment: Protac activity at CRBN E3 ubiquitin ligase/tyrosinase in human A-375 cells assessed as induction of tyrosinase degradation at 50 uM measured after 24 hrs by immunoblotting analysis; format: cell-based
T1 sequence (Q96SW2 whole entry, looked up, one chain of several): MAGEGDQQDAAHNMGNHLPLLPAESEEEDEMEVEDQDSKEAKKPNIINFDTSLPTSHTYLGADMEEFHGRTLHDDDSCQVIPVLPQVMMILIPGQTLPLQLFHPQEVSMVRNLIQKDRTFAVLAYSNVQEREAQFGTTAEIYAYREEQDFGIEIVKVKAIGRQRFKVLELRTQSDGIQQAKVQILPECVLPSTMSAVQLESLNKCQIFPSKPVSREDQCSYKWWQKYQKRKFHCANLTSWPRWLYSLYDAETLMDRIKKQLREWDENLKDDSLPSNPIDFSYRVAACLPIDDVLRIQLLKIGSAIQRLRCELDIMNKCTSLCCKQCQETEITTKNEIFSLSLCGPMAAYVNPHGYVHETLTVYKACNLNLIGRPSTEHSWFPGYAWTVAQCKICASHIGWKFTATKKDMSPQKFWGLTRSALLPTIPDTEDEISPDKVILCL

[2] = biological target: T1, Protein cereblon/Tyrosinase (Homo sapiens); experiment: Protac activity at CRBN E3 ubiquitin ligase/tyrosinase in human A375 cells assessed as induction of tyrosinase degradation at 50 uM measured after 24 hrs by immunoblotting analysis relative to control; format: cell-based; conditions: A-375
[3] = biological target: T1, Protein cereblon/Tyrosinase (Homo sapiens); experiment: Protac activity at CRBN E3 ubiquitin ligase/tyrosinase in human A-375 cells assessed as induction of tyrosinase degradation at 100 uM measured after 24 hrs by immunoblotting analysis; format: cell-based
[4] = system: A-375; experiment: Inhibition of melanin production in human A-375 cells assessed depigmentation ability at 0 to 100 uM measured after 24 hrs by UV-visible absorption spectrophotometric method relative to 100 uM L-Dopa; format: functional; conditions: dose 0-100 µM
[5] = species: Danio rerio; experiment: Inhibition of melanin production in zebra fish assessed depigmentation effect at 25 to 100 uM measured 96 hrs post fertilization relative to control; format: functional; parameters: scale not given: the % may be the effect or the level left; conditions: dose 25-100 µM
[6] = biological target: Beta-1 adrenergic receptor (Homo sapiens) (UniProt P08588); experiment: Induction of degradation in adrenergic receptor beta1 in human A-375 cells at 100 uM measured after 24 hrs by immunoblotting analysis; format: cell-based
Chain of Beta-1 adrenergic receptor (Homo sapiens) (P08588 whole entry, looked up): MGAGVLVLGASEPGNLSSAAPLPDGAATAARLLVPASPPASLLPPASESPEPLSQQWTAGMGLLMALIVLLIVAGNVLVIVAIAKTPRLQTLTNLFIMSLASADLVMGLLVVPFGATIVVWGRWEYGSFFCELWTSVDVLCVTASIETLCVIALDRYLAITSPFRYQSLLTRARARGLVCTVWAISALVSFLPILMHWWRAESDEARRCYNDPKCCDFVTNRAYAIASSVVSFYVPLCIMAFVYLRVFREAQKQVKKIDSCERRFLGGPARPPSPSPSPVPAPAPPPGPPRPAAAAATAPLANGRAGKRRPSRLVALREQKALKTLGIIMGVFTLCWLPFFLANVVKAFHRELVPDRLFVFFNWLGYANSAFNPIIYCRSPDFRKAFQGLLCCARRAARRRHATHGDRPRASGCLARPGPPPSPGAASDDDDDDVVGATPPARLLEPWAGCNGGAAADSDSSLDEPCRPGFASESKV

[7] = Toxicity in zebrafish embryo assessed as effect on respiration at 25 to 100 uM measured 48 hrs post fertilization; parameters: species or system Danio rerio; conditions: in vivo, dose 25-100 µM
[8] = biological target: Adrenergic receptor alpha-1 (Homo sapiens) (UniProt P35348+P25100+P35368); experiment: Induction of degradation in adrenergic receptor alpha1 in human A-375 cells at 100 uM measured after 24 hrs by immunoblotting analysis; format: cell-based
[9] = biological target: T2, Tyrosinase (Homo sapiens) (UniProt P14679); experiment: Induction of human tyrosinase degradation in human A-375 cells assessed as downregulation of tyrosinase at 100 uM pretreated with proteasome inhibitor, MG132 for 30 mins followed by compound addition and measured after 24 hrs by immunoblotting analysis; format: cell-based
T2 sequence (whole entry): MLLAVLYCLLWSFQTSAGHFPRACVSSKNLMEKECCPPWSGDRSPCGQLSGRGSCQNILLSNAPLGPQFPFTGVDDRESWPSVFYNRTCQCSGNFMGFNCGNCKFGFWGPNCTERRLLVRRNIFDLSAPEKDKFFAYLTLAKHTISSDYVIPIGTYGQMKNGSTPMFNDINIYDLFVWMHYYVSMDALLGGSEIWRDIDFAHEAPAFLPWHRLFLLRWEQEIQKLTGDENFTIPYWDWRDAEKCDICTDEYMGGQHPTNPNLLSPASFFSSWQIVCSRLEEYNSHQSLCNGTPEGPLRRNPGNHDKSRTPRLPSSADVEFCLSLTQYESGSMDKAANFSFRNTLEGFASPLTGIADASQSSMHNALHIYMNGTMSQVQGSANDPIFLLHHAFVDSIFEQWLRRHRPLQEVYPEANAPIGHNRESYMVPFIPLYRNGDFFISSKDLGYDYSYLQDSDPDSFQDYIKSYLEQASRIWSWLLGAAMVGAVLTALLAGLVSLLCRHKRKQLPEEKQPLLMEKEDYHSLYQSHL

[10] = system: A-375; experiment: Inhibition of melanin production in human A-375 cells assessed depigmentation ability at 0 to 100 uM measured after 24 hrs by UV-visible absorption spectrophotometric method relative to 100 uM kojic acid; format: functional; conditions: dose 0-100 µM
[11] = species: Danio rerio; experiment: Inhibition of melanin production in zebra fish assessed reduction in melanin level in eyes at 25 to 100 uM measured 48 hrs post fertilization relative to 100 uM kojic acid; format: functional; conditions: dose 25-100 µM
[12] = biological target: T3, Tyrosinase (Homo sapiens, UniProt P14679); experiment: Inhibition of human tyrosinase
T3 sequence (P14679 whole entry): T2 sequence (whole entry)

[13] = Aqueous solubility of compound; format: physicochemical; conditions: aqueous (not further specified)
[14] = biological target: T2, Tyrosinase (Homo sapiens); experiment: Induction of human tyrosinase degradation in human A-375 cells assessed as downregulation of tyrosinase at 100 uM pretreated with ubiquitin activating enzyme inhibitor […] for 30 mins followed by compound addition and measured after 24 hrs by immunoblotting analysis; format: cell-based
[15] = biological target: T1, Protein cereblon/Tyrosinase (Homo sapiens); experiment: Protac activity at CRBN E3 ubiquitin ligase/tyrosinase in human A-375 cells assessed as induction of tyrosinase degradation measured after 24 hrs by immunoblotting analysis; format: cell-based
[16] = Toxicity in zebrafish embryo assessed as effect on morphology at 25 to 100 uM measured 48 hrs post fertilization; format: tissue-based, Danio rerio; conditions: in vivo, dose 25-100 µM
[17] = species: Danio rerio; experiment: Inhibition of melanin production in zebra fish assessed reduction in melanin level in eyes at 25 to 100 uM measured 48 hrs post fertilization; format: functional, organism-based; conditions: dose 25-100 µM
[18] = species: Danio rerio; experiment: Inhibition of melanin production in zebra fish assessed reduction in melanin level in back at 25 to 100 uM measured 48 hrs post fertilization; format: functional, organism-based; conditions: dose 25-100 µM
[19] = Cytotoxicity against human A-375 cells assessed as reduction in cell viability measured after 72 hrs by CCK8 assay; format: cell-based
[20] = species: Danio rerio; experiment: Inhibition of melanin production in zebra fish assessed reduction in melanin level in tail at 25 to 100 uM measured 48 hrs post fertilization; format: functional, organism-based; conditions: dose 25-100 µM
[21] = system: HEK293; experiment: Cytotoxicity against HEK293 cells assessed as reduction in cell viability at up to 400 uM measured after 72 hrs by CCK8 assay; format: cell-based; conditions: human, hek293, 72 h
[22] = biological target: D(1A) dopamine receptor (Homo sapiens) (UniProt P21728); experiment: Induction of degradation in dopamine receptor D1 in human A-375 cells at 100 uM measured after 24 hrs by immunoblotting analysis; format: cell-based
Chain of D(1A) dopamine receptor (Homo sapiens) (P21728 whole entry): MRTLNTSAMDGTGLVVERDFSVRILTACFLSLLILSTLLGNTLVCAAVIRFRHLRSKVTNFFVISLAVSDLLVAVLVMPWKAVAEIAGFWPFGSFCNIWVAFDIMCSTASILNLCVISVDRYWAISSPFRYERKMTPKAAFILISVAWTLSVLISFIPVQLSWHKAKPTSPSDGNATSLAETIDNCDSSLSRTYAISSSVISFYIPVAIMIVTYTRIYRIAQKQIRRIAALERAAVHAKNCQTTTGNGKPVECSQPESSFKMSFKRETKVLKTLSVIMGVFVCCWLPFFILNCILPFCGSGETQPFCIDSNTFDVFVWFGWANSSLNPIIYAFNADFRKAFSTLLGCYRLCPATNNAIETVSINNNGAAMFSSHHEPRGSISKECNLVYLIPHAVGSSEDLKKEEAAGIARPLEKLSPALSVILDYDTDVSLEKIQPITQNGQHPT

[23] = biological target: T1, Protein cereblon/Tyrosinase (Homo sapiens); experiment: Protac activity at CRBN E3 ubiquitin ligase/tyrosinase in human A-375 cells assessed as induction of tyrosinase degradation at 100 uM measured up to 48 hrs by immunoblotting analysis; format: cell-based; conditions: time hrs <=48, TDE = time-dependent effect
[24] = system: A-375; experiment: Cytotoxicity against human A-375 cells assessed as reduction in cell viability at up to 400 uM measured after 72 hrs by CCK8 assay; format: cell-based; conditions: a-375, 72 h
[25] = system: A-375; experiment: Inhibition of melanin production in human A-375 cells assessed reduction in melanin level measured after 24 hrs by UV-visible absorption spectrophotometric method; format: functional, cell-based
[26] = biological target: T1, Protein cereblon/Tyrosinase (Homo sapiens); experiment: Protac activity at CRBN E3 ubiquitin ligase/tyrosinase in human A-375 cells assessed as induction of tyrosinase degradation by measuring maximum degradation at 100 uM measured after 24 hrs by immunoblotting analysis relative to control; format: cell-based
[27] = species: Danio rerio; experiment: Inhibition of melanin production in zebra fish assessed reduction in melanin level in eyes at 25 to 100 uM measured 48 hrs post fertilization relative to 100 uM L-Dopa; format: functional; conditions: dose 25-100 µM
[28] = species: Danio rerio; experiment: Inhibition of melanin production in zebra fish assessed reduction in melanin level in abdomen at 25 to 100 uM measured 48 hrs post fertilization; format: functional, organism-based; conditions: dose 25-100 µM
[29] = n-Octanol/water partition coefficient, logD of the compound; format: physicochemical
[30] = Cytotoxicity against HEK293 cells assessed as reduction in cell viability measured after 72 hrs by CCK8 assay; format: cell-based; conditions: human
[31] = species: Danio rerio; experiment: Inhibition of melanin production in zebra fish assessed depigmentation effect at 100 uM measured 96 hrs post fertilization; format: functional, organism-based
[32] = system: A-375; experiment: Inhibition of melanin production in human A-375 cells assessed reduction in melanin level at 100 uM measured after 24 hrs by UV-visible absorption spectrophotometric method; format: functional, cell-based
[33] = biological target: Mushroom tyrosinase (Agaricus bisporus, UniProt O42713+Q00024+C7FF04+C7FF05); experiment: Binding affinity to mushroom tyrosinase assessed as dissociation constant

## N[C@@H](Cc1ccc(O)c(O)c1)C(=O)NCCCCCCCCNc1cccc2c1C(=O)N(C1CCC(=O)NC1=O)C2=O (some centres not stated)
[1]
  Activity: Active
[2]
  Activity: 38%

## O=C1CCC(N2C(=O)c3cccc(NCCCCCCCCC(=O)OCc4cc(=O)c(O)co4)c3C2=O)C(=O)N1 (configuration not stated)
[1]
  Activity: inactive

## O=C(CCc1ccc(O)c(O)c1)NCCCCCNc1cccc2c1C(=O)N(C1CCC(=O)NC1=O)C2=O (configuration not stated)
[3]
  Activity: inactive

## N[C@@H](Cc1ccc(O)c(O)c1)C(=O)NCCCNc1cccc2c1C(=O)N(C1CCC(=O)NC1=O)C2=O (some centres not stated)
[2]
  Activity: 25%

## N[C@@H](Cc1ccc(O)c(O)c1)C(=O)NCCCCNc1cccc2c1C(=O)N(C1CCC(=O)NC1=O)C2=O (some centres not stated)
[2]
  Activity: 19%

## N[C@@H](Cc1ccc(O)c(O)c1)C(=O)NCCCCCNc1cccc2c1C(=O)N(C1CCC(=O)NC1=O)C2=O (some centres not stated)
[4]
  fold change (FC): 1.7
[5]
  Activity: 81%
[6]
  Activity: inactive
[7]
  Activity: Non-Toxic
[8]
  Activity: inactive
[9]
  Activity: inactive
[10]
  fold change (FC): 1.4
[11]
  fold change (FC): 3.3
[12]
  IC50: 113 µM
[13]
  solubility: 11400 µg/mL (≈ 21200 µM)
[14]
  Activity: inactive
[15]
  Activity: Dose-Dependent Effect
[16]
  Activity: Non-Toxic
[1]
  Activity: Active
[17]
  inhibition: Active
[18]
  inhibition: Active
[19]
  CC50 at 72 h: > 700 µM
[20]
  inhibition: Active
[21]
  Activity: Non-Toxic
[22]
  Activity: inactive
[23]
  Activity: Tde
[24]
  Activity: Non-Toxic
[25]
  inhibition: Dose-Dependent Effect
[2]
  Activity: 46%
[26]
  %max: 61%
[27]
  fold change (FC): 5.1
[28]
  inhibition: Active
[29]
  logP: -0.65
[30]
  CC50 at 72 h: > 700 µM

## N[C@@H](Cc1ccc(O)c(O)c1)C(=O)NCCNc1cccc2c1C(=O)N(C1CCC(=O)NC1=O)C2=O (some centres not stated)
[2]
  Activity: 14%

## N[C@@H](Cc1ccc(O)c(O)c1)C(=O)NCCCCCCCCCCNc1cccc2c1C(=O)N(C1CCC(=O)NC1=O)C2=O (some centres not stated)
[2]
  Activity: 37%

## N[C@@H](Cc1ccccc1)C(=O)NCCCCCNc1cccc2c1C(=O)N(C1CCC(=O)NC1=O)C2=O (some centres not stated)
[3]
  Activity: inactive

## O=C1CCC(N2C(=O)c3cccc(NCCCCCCCC(=O)OCc4cc(=O)c(O)co4)c3C2=O)C(=O)N1 (configuration not stated)
[1]
  Activity: inactive

## CN1C(=O)CCC(N2C(=O)c3cccc(NCCCCCNC(=O)[C@@H](N)Cc4ccc(O)c(O)c4)c3C2=O)C1=O (some centres not stated)
[3]
  Activity: inactive

## O=C1CCC(N2C(=O)c3cccc(NCCCCCC(=O)OCc4cc(=O)c(O)co4)c3C2=O)C(=O)N1 (configuration not stated)
[1]
  Activity: inactive

## N[C@@H](Cc1cccc(O)c1)C(=O)NCCCCCNc1cccc2c1C(=O)N(C1CCC(=O)NC1=O)C2=O (some centres not stated)
[3]
  Activity: inactive

## N[C@@H](Cc1ccc(O)c(O)c1)C(=O)NCCOCCNc1cccc2c1C(=O)N(C1CCC(=O)NC1=O)C2=O (some centres not stated)
[2]
  Activity: 7%

## O=C1CCC(N2C(=O)c3ccccc3C2=O)C(=O)N1 (configuration not stated)
[1]
  Activity: inactive

## O=c1cc(CO)occ1O [KOJIC ACID]
[13]
  solubility: 55 µg/mL (≈ 387 µM)
[17]
  inhibition: inactive
[18]
  inhibition: inactive
[20]
  inhibition: inactive
[31]
  Activity: Active
[32]
  inhibition: Active
[28]
  inhibition: inactive

## O=c1oc2c(O)c(O)cc3c(=O)oc4c(O)c(O)cc1c4c23 [ELLAGIC ACID]
[13]
  solubility: 9.7 µg/mL (≈ 32.1 µM)

## N[C@@H](Cc1ccc(O)cc1)C(=O)NCCCCCNc1cccc2c1C(=O)N(C1CCC(=O)NC1=O)C2=O (some centres not stated)
[3]
  Activity: inactive

## N[C@@H](Cc1ccc(O)c(O)c1)C(=O)NCCCCCCNc1cccc2c1C(=O)N(C1CCC(=O)NC1=O)C2=O (some centres not stated)
[6]
  Activity: inactive
[8]
  Activity: inactive
[22]
  Activity: inactive
[2]
  Activity: > 25%

## O=C1CCC(N2C(=O)c3cccc(NCCCCCCCCCCC(=O)OCc4cc(=O)c(O)co4)c3C2=O)C(=O)N1 (configuration not stated)
[1]
  Activity: inactive

## N[C@@H](Cc1ccc(O)c(O)c1)C(=O)NCCOCCOCCNc1cccc2c1C(=O)N(C1CCC(=O)NC1=O)C2=O (some centres not stated)
[2]
  Activity: 7%

## N[C@@H](Cc1ccc(O)c(O)c1)C(=O)NCCCCCCCNc1cccc2c1C(=O)N(C1CCC(=O)NC1=O)C2=O (some centres not stated)
[2]
  Activity: 37%

## N[C@@H](Cc1ccc(O)c(O)c1)C(=O)O [LEVODOPA]
[1]
  Activity: inactive
[33]
  Kd: 19 µM
[17]
  inhibition: inactive
[18]
  inhibition: inactive
[20]
  inhibition: inactive
[32]
  inhibition: Active
[28]
  inhibition: inactive
